The nature of series [1]: Plasma estradiol levels after s.c. estradiol benzoate. The class given is in vivo, rat. The note with it: OVX rats, mean±SEM.
Series [2] deals with TG neurons. Kind of series: PRL release from cultured TG neurons (RIA). The note with it: 300 nM capsaicin or 25 mM KCl; for release of immunoreactive PRL: neurons from OVX rats cultured in the absence of E2; for PRL released from TG neurons: neurons of proestrous rats cultured with 50 nM E2, 15 min. In kind it is cell-based, rat. As to the method:
PRL is known to be released from cells of the anterior pituitary (Zacur et al. 1976) and from extrapituitary sites (Ben-Jonathan et al., 2002; Zinger et al., 2003; Torner et al., 2004). To determine whether PRL protein is present in a releasable pool in TG sensory neurons, cultured TG neurons derived either from proestrous rats (cultured in the presence of 50 nM E2) or from OVX rats (cultured without E2) were exposed to 300 nM capsaicin or 25 mM KCl buffer. The results obtained from these experiments are depicted in FIG. 2D, which indicate that a substantial amount of PRL is released from TG neurons of proestrous rats cultured in the presence of E2 upon stimulation with either capsaicin (158±12% of vehicle) or KCL (154±16% of vehicle). […] Data are presented as mean % of basal release±SEM (n=6/group, *=p<0.05 and **=p<0.01; one-way ANOVA with Bonferroni's post hoc test).
Rat trigeminal ganglia (TG) primary cultures: The TG from ovariectomized or intact female rats were quickly removed after decapitation and neuronal cultures were prepared as previously described (Fehrenbacher et al., 2005; Patwardhan et al., 2005). The trypsin treatment was omitted in TG cultures prepared for electrophysiological recording and Ca^2+ imaging. Cells were plated on 24 well Poly-D-Lysine coated plates (for iCGRP experiments), 6 well Poly-D-Lysine plates (for PRL release experiments), Poly-D-Lysine/laminin-coated coverslips (for single cell studies) or 10 cm plates (for phosphorylation experiments), respectively. The TG cultures were maintained at 37° C. and 5% CO2. […] The media were replaced at the end of 24 h and then 48 h later.
PRL Release Experiments: These experiments were performed at day 5 with TG cultures from OVX or intact female rats using Krebs buffer (NaCl 135 mM, KCl 3.5 mM, MgCl2 1 mM, NaH2PO4 1 mM, CaCl2 2.5 mM, BSA 0.1%, dextrose 3.3 mM, ascorbic acid 0.1 mM, HEPES 10 mM, thiorphan 16 μM; pH 7.4). After two initial washes, a 15 min baseline sample was collected. Cells were then exposed to 300 nM capsaicin (Sigma) or 25 mM KCl and incubated at 37° C. for an additional 15 min followed by collection of the samples. The 1 ml collected samples were lyophilized and resuspended in 250 ul of water and immediately frozen in −80° C. Frozen samples were sent to Dr. A. F. Parlow (NHPP, Harbor-UCLA) to have levels of PRL determined by a well-validated radioimmunoassay (RIA) with sensitivity range from 1-100 ng/ml. Results are representative of 6 independent experiments.

Series [3] has as its target T1, PRL-R (Rattus norvegicus, UniProt P05710).
T1 construct: endogenous in cells; host or cells: primary rat trigeminal ganglion neurons
T1 sequence (P05710 20-610): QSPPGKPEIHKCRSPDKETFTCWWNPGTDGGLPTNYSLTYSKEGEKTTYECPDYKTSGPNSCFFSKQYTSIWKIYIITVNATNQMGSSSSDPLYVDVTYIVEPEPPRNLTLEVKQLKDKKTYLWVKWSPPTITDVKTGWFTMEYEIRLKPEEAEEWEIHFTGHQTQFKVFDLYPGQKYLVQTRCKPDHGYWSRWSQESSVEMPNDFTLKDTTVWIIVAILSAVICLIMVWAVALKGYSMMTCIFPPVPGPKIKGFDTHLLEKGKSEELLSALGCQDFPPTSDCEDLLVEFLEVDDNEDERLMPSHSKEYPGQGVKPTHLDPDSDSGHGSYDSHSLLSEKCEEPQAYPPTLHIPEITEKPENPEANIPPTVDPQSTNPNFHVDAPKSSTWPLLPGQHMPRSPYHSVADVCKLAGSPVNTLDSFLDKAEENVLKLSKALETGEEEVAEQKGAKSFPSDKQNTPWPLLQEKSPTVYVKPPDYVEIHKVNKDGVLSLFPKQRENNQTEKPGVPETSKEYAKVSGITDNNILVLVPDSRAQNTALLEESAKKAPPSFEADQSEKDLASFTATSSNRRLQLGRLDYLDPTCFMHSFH
In words: Calcium imaging, block of PRL potentiation by PRL-R antagonist. In kind it is cell-based. The note with it: for block of PRL potentiation of capsaicin-evoked Ca2+ influx: antagonist 800 nM co-treated with PRL 40 nM, capsaicin 30 nM. On the procedure: To determine whether PRL augmentation of capsaicin responses occurs through the PRL-R (i.e., whether PRL-signaling could account for the observed effects of PRL on nociceptors sensitization), Ca^2+ imaging experiments were performed on neurons in the presence of a molar excess of a full PRL-R antagonist (Δ 1-9-G129R-hPRL) (Bernichtein et al., 2003; Goffin et al., 2005). Cultured neurons were treated as described in the previous experiment. In addition, neurons were co-treated with PRL and the PRL-R antagonist 1-9-Δ-G 129R-hPRL (800 nM). […] Data are presented as mean % of vehicle±SEM (n=19-40, *=p<0.05; two-way ANOVA).
Calcium Imaging: TG cells cultured on coverslips were loaded with the cell-permeable calcium sensitive dye FURA 2-AM (1 ug/ml) (Molecular Probes, Eugene, Oreg.) for 30 min at 37° C. in Standard External Solution (SES) of the following composition in mM: 140 NaCl, 5 KCl, 2 CaCl2, 1 MgCl2, 10 glucose and 10 HEPES, pH 7.4. Coverslips containing cells were placed in a chamber with constant infusion of SES. Images were captured by a Nikon Eclipse TE-2000 microscope fitted with a 20×/NA 0.75 Fluor objective. Fluorescence images were collected in 5 sec intervals throughout the experiment, analyzed, and the F340/F380 ratio calculated by the Methafluor Software (MethaMorph, Web Universal Imaging Corporation, Downingtown, Pa.). Capsaicin was delivered locally to the cells, whereas PRL was delivered into the bath solution. The magnitude of calcium influx was determined by subtracting the averaged baseline 30 sec prior to the capsaicin stimulus from the peak achieved by the capsaicin stimulation for each cell (ratiometric method, ΔF340/F380).

Series [4] concerns TG neurons. In words: Patch clamp, capsaicin-induced currents (Icap). The class given is cell-based, rat. As to the method: Since application of PRL rapidly increases capsaicin-induced calcium accumulation and neuropeptide release, the role of PRL in modulating capsaicin-induced currents (Icap) was examined. TRPV1 desensitization of cultured TG neurons was induced through the repeated application of 100 nM capsaicin to the cultures (Vellani et al., 2001; Bonnington and McNaughton, 2003). The sub-maximal concentration of capsaicin used was effective in inducing desensitization and permitted the investigation PRL-evoked re-sensitization or further sensitization of TRPV1. […] Data are presented as mean±SEM of PRL-treated ΔIcap (3rd Icap-2^ndIcap) normalized to vehicle treated ΔIcap, (n=8-12/group, *=p<0.05 and **=p<0.01; two-way ANOVA). […] Acutely dissociated TG neurons from female rats were locally pretreated with vehicle or PRL (40 nM) for 60 sec, washed for 60 sec and subjected to a single capsaicin pulse (40 sec, 0.1 nM-5 μM). Data are shown as mean±SEM (n=12-20/group, *=p<0.05 and ***=p<0.001 vehicle vs. PRL; two-way ANOVA). FIGS. 5C and 5D depict representative traces of Icap recordings from intact (FIG. 5C) and OVX (FIG. 5D) female rat TG neurons. Concentration of applied CAP and PRL are indicated. The duration CAP and PRL treatment was 30 sec and 60 sec, respectively. The magnitude of the second capsaicin-evoked inward currents (Icap) peak was subtracted from the third Icap peak to calculate the difference (ΔIcap). Data were normalized to the vehicle treated ΔIcap.
(§1) Patch Clamp Electrophysiology: All recordings were performed in whole-cell voltage-clamp (Vh=−60 mV) configuration. Recordings were acquired at 22-24° C. from the somata of neurons (15-45 pF) using an Axopatch200B amplifier and pCLAMP9.0 software (Axon Instruments, Union City, Calif.). Data were filtered at 0.5 kHz and sampled at 2 kHz. Borosilicate pipettes (Sutter, Novato, Calif.) were polished to resistances of 3-5 MΩ in pipette solution. Access resistance was compensated (40-80%) to 7-10 MΩ values when appropriate. Cell diameters were calculated using d=√[100*Cm/π], where d (μm) is cell diameter and Cm (pF) is membrane capacitance.
Standard external solution (SES) had the composition as described above. […] Drugs were applied using a fast, computer controlled pressure-driven 8-channel system (ValveLink8; AutoMate Scientific, San Francisco, Calif.).
FIG. 11B summarizes the effect of adding rhPRL on Icap of cultured TG neurons from male, female and OVX female rats. Number of recorded neurons and neurons in which effects were observed are indicated above the bars. The recordings were performed in whole-cell voltage clamp c(Vh=−60 mV) configuration. Solutions are SES and SIS.
(Patch clamp records ionic current or voltage across a cell membrane.)

For series [5], the target named is T1, PRL-R. Kind of series: Patch clamp Icap, G129R-PRL against PRL sensitization. The class given is cell-based. On the procedure:
as §1
Since it is possible that this effect is observed only in full PRL-R antagonists, it is of interest to determine the effectiveness of partial PRL-R antagonists in blocking PRL-mediated nociceptor sensitization. To this end, the ability of the partial PRL […] (G129R-PRL) to inhibit PRL-induced increase in sensitivity to capsaicin was assessed. FIG. 10 summarizes the effect of administering PRL, human G129R-PRL, or their combination, on Icap. G129R-PRL acts as either a partial or full antagonist, depending on the cellular context of the experimental system (Goffin, Bernichtein et al. 2003).

This is an account of results in US7507716B2, “Method for treating pain with prolactin antagonists” (Board of Regents, The University of Texas System, priority 2005, dated 2009).

Positions count from the first letter of the chain named. Numbers in names are those of the source.

Regarding `C[C@]12CC[C@@H]3c4ccc(OC(=O)c5ccccc5)cc4CC[C@H]3[C@@H]1CC[C@@H]2O` [17-beta-estradiol 3-benzoate], the figures for the plasma estradiol levels in series [1] (2 μg/kg s.c. daily for 10 days), in series [1] (20 μg/kg s.c. daily for 10 days) and in series [1] (80 μg/kg s.c. daily for 10 days) were 1.89 ± 0.36 pg/mL, 59 ± 17.1 pg/mL and 110 ± 36.6 pg/mL, respectively.

Regarding `[Cl-].[K+]` [KCL, KCl], in series [2], the “release of immunoreactive PRL” value was “no detectable release” and the “PRL released from TG neurons” value is listed as 154±16 % of vehicle.

Regarding `COc1cc(CNC(=O)CCCC/C=C/C(C)C)ccc1O` [capsaicin], in series [2], the “release of immunoreactive PRL” value was “no detectable release” and the “PRL released from TG neurons” value is 158±12 % of vehicle.

B1: Δ 1-9-G129R-hPRL: full PRL-R antagonist, human PRL variant synthesized as described (Bernichtein et al., 2003; Goffin et al., 2005) (protein)
chain: LPICPGGAARCQVTLRDLFDRAVVLSHYIHNLSSEMFSEFDKRYTHGRGFITKAINSCHTSSLATPEDKEQAQQMNQKDFLSLIVSILRSWNEPLYHLVTEVRGMQEAPEAILSKAVEIEEQTKRLLERMELIVSQVHPETKENEIYPVWSGLPSLQMADEESRLSAYYNLLHCLRRDSHKIDNYLKLLKCRIIHNNNC
On to B1, for which the “effect of antagonist on its own on capsaicin-evoked Ca2+ influx” value in series [3] (800 nM, without PRL) was “had no effect on its own”. For the same molecule, the “block of PRL potentiation of capsaicin-evoked Ca2+ influx” value in series [3] is reported as “significantly blocked PRL potentiation of capsaicin-evoked Ca^2+ influx”; in series [3] (listed as 1-9-Δ-G129R-hPRL), “significantly blocked”.

B2: rhPRL: recombinant human PRL (protein, UniProt P01236 29-227, looked up)
Prolactin: B1 chain with R129G
B2: the “sensitization of capsaicin-evoked Icap” value in series [4] (cultured TG neurons from male and female rats, capsaicin 100 nM (FIG. 11A)) is “is able to sensitize cultured neurons isolated from male and female TG neurons”. The “concentration dependence of Icap increase” value in series [4] (male and female TG neurons, varying rhPRL concentrations) was “dose-dependent increases in Icap”.

B3: G129R-PRL: human prolactin variant, partial or full PRL-R antagonist / partial agonist; sequence in FIG. 9B (SEQ ID NO: 48) (protein, listed as Homo sapiens)
chain: B1 chain
Take B3: the “effect on Icap in the absence of rPRL” value in series [5] (3 of 3 examined neurons) was “displayed partial agonist effects”. The “reduction of the PRL effect on Icap” value in series [5] (G129R-PRL 16 nM co-applied with rPRL 4 nM, observed in 6 of 7 neurons) is reported as “about 40%”.
